# Measurements from patent US8796244B2, “Imidazopyridine derivatives as inhibitors of receptor tyrosine kinases” (Astex Therapeutics Ltd, priority 2008, dated 2014).
# Counter-ions that a name gives are not always drawn. Like-named read-outs stand apart in the source and are kept apart here.
# Legend:
# [1] = tested on: parental wild-type Ba/F3 cells; assay: Ba/F3 (WT) cell proliferation assay (Alamar Blue); format: cell-based; conditions: Mus musculus; for IC50: 72 hours, Alamar Blue, read-out: BaF3 WT prolif
# [2] = molecular target: FGFR3 (Homo sapiens (Human), UniProt P22607); assay: FGFR3 in vitro kinase inhibitory activity assay (TRF)
# FGFR3, sequence (P22607 23-806): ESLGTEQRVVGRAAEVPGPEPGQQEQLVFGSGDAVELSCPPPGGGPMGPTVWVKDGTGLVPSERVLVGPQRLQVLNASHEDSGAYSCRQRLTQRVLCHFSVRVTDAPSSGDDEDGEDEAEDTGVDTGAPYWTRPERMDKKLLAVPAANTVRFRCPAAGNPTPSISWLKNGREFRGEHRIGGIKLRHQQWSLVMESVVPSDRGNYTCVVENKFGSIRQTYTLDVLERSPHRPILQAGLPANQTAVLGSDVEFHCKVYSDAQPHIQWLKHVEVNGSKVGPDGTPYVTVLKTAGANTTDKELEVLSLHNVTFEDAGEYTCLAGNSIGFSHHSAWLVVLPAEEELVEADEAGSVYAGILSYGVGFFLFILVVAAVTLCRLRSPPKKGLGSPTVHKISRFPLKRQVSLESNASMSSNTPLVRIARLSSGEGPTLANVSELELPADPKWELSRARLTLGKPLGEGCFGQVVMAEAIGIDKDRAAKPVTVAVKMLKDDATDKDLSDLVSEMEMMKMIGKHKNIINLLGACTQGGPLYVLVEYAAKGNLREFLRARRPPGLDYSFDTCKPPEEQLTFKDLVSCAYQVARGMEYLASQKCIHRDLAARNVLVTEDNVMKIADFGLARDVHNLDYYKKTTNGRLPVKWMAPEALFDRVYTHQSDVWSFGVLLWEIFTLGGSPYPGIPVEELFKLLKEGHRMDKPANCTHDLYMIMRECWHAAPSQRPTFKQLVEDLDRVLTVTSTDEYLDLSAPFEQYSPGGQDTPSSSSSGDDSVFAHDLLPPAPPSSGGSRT
# [3] = molecular target: VEGFR2 (Homo sapiens (Human), UniProt P35968); assay: VEGFR2 in vitro kinase inhibitory activity assay (TRF, Flt3 substrate); format: biochemical
# VEGFR2, sequence (P35968 20-1356): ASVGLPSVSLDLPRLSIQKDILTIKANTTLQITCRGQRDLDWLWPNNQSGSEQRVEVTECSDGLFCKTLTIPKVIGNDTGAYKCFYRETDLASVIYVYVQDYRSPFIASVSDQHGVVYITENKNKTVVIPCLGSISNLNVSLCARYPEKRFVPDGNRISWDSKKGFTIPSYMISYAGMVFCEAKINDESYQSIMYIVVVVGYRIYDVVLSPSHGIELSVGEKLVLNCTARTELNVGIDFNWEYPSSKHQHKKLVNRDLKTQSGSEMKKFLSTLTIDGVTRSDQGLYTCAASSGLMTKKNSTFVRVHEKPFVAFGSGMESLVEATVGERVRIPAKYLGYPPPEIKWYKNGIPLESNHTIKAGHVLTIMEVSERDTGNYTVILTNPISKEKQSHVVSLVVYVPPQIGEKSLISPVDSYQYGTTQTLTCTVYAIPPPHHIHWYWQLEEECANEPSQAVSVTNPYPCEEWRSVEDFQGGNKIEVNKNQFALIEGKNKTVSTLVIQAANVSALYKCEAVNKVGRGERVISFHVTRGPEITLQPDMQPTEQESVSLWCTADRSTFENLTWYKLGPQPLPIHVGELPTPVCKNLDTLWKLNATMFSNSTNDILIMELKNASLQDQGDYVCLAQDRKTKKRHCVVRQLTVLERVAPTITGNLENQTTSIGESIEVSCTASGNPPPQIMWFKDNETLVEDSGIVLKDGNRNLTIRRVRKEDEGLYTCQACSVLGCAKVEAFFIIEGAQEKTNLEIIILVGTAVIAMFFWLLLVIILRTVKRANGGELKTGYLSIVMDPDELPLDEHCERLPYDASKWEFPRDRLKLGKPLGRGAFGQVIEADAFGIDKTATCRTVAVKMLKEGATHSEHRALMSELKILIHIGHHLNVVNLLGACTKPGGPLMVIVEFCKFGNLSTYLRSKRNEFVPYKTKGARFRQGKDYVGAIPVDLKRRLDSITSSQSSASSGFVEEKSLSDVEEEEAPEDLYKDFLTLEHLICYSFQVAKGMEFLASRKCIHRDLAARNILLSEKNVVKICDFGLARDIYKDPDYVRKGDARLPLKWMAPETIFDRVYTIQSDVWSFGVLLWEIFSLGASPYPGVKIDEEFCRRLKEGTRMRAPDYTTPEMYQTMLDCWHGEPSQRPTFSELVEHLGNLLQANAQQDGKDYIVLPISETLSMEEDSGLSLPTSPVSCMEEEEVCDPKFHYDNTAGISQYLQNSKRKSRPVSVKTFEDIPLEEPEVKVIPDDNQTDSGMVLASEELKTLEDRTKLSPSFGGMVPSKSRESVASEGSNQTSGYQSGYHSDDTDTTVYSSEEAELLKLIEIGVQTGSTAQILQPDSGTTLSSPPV
# [4] = tested on: Ba/F3-TEL-FGFR3 cells; assay: Ba/F3-TEL-FGFR3 cell proliferation assay (Alamar Blue); format: cell-based; conditions: for IC50: 72 hours, Alamar Blue, read-out: BaF3-TEL-FGFR3 prolif
# [5] = tested on: LP-1 cell line (FGF-1/Heparin induced pERK); assay: Cell-based pERK ELISA, LP-1 cells; conditions: Homo sapiens, LP-1, read-out: LP-1 pERK ELISA (μM)
# [6] = BaF3, read-out: BaF3 WT prolif, % inhibition
# [7] = BaF3, at 10 μM, read-out: BaF3 WT prolif, % inhibition
SMILES,"inhibition at 0.0003 µM ([2]; 3 h, read-out: FGFR3 % I)",IC50 [4],IC50 [5],IC50 ([1]; BaF3),other results
Nc1nc(-c2ccn3c(-c4cc(NC(=O)NCC(F)(F)F)cc(OC5CCCC5)c4)cnc3c2)ncc1F [Compound 281],–,–,–,1400 nM,"inhibition at 0.1 µM ([2]; 3 h, read-out: FGFR3 % I): 42%"
Cc1ccc(NC(=O)NCC(F)(F)F)cc1-c1cnc2cc(-c3ncc(F)c(N)n3)ccn12 [Compound 283],–,–,–,–,"IC50 [3]: > 10000 nM; IC50 ([2]; read-out: FGFR3 IC50, […]): > 1000 nM"
CCNc1nnc(-c2ccn3c(-c4cccc(NC(=O)NCC(F)(F)F)c4)cnc3c2)s1 [Compound 286],57%,–,–,–,"inhibition at 3 µM ([4]; read-out: BaF3-TEL-FGFR3 prolif, % inhibition): 55%; inhibition at 10 µM [1, 6]: 0%"
COCCNc1nnc(-c2ccn3c(-c4cccc(NC(=O)NCC(F)(F)F)c4)cnc3c2)s1 [Compound 288],54%,35 nM,–,–,"inhibition at 10 µM [1, 6]: 7.8%"
COc1cc(NC(=O)NCC(F)(F)F)cc(-c2cnc3cc(-c4ncccn4)ccn23)c1 [Compound 304],–,–,–,–,"inhibition at 3 µM ([3]; 1 h, read-out: VEGFR2 % I): 59%; inhibition at 0.1 µM ([2]; 3 h, read-out: FGFR3 % I): 55%"
COC(=O)c1cc(NC(=O)NCC(F)(F)F)cc(-c2cnc3cc(-c4ccnc(C(F)(F)F)n4)ccn23)c1 [Compound 307],–,–,–,–,"inhibition at 1 µM ([3]; 1 h, at 1 μM, read-out: VEGFR2 % I): 58%; inhibition at 10 µM ([4]; at 10 μM, read-out: BaF3-TEL-FGFR3 prolif, % inhibition): 25%; inhibition at 10 µM [1, 7]: 0%; inhibition at 0.03 µM ([2]; 3 h, read-out: FGFR3 % I): 39%"
N#CCc1cc(NC(=O)NCC(F)(F)F)cc(-c2cnc3cc(-c4ccnc(C(F)(F)F)n4)ccn23)c1 [Compound 310],–,–,–,–,"IC50 [3]: > 3000 nM; inhibition at 0.3 µM ([2]; 3 h, read-out: FGFR3 % I): 36%"
CC(C)(O)c1ccc(-c2ccn3c(-c4cccc(NC(=O)NCC(F)(F)F)c4)cnc3c2)cc1 [Compound 321],36%,21 nM,–,460 nM,–
NC1CCN(c2ccc(-c3ccn4c(-c5cccc(NC(=O)NCC(F)(F)F)c5)cnc4c3)cn2)CC1 [Compound 330],–,27 nM,–,560 nM,"inhibition at 0.00097 µM ([2]; 3 h, read-out: FGFR3 % I): 66%"
CCCCCOC(=O)Nc1nc(-c2ccn3c(-c4cccc(NC(=O)NCC(F)(F)F)c4)cnc3c2)ncc1F [Compound 331],–,1600 nM,–,–,"inhibition at 3 µM ([3]; 1 h, read-out: VEGFR2 % I): 43%; inhibition at 10 µM [1, 7]: 60%; inhibition at 0.03 µM ([2]; 3 h, read-out: FGFR3 % I): 42%"
"CN1CCCC(n2cc(-c3ccn4c(-c5cccc(NC(=O)NCC(F)(F)F)c5)cnc4c3)cn2)C1 (centres unmarked) [Example 38, 1-(3-{7-[1-(1-Methylpiperidin-3-yl)-1H-pyrazol-4-yl]imidazo[1,2-a]pyridin-3-yl]phenyl)-3-(2,2,2-trifluoroethyl)urea hydrochloride]",–,22 nM,0.0086 µM,440 nM,–
"CCN1CCC(n2cc(-c3ccn4c(-c5cccc(NC(=O)NCC(F)(F)F)c5)cnc4c3)cn2)C1 (centres unmarked) [Example 44, 1-(3-{7-[1-(1-Ethyl-pyrrolidin-3-yl)-1H-pyrazol-4-yl)-imidazo[1,2-a]pyridin-3-yl}-phenyl)-3-(2,2,2-trifluoro-ethyl)-urea]",–,45 nM,0.022 µM,900 nM,–
"CC(C)(C)OC(=O)N1CCC(n2cc(-c3ccn4c(-c5cncc(NC(=O)NCC(F)(F)F)c5)cnc4c3)cn2)CC1 [Example 55, 4-[4-(3-{5-[3-(2,2,2-Trifluoro-ethyl)-ureido]-pyridin-3-yl}-imidazo[1,2-a]pyridin-7-yl)-pyrazol-1-yl]-piperidine-1-carboxylic acid tert-butyl ester]",38%,–,–,–,–

# Further lines, with some results ahead:
"inhibition at 0.0003 µM ([2]; 3 h, read-out: FGFR3 % I)",IC50 [4],IC50 [5],SMILES,IC50 ([1]; BaF3),other results
–,300 nM,0.047 µM,"CC(C)(CO)n1cc(-c2ccn3c(-c4cccc(NC(=O)NCC(F)(F)F)c4)cnc3c2)cn1 [Example 10, 1-(3-{7-[1-(2-Hydroxy-1,1-dimethylethyl)-1H-pyrazol-4-yl]-imidazo[1,2-a]pyridin-3-yl}phenyl)-3-(2,2,2-trifluoroethyl)urea]",2300 nM,"inhibition at 0.001 µM ([2]; 3 h, read-out: FGFR3 % I): 50%"
–,420 nM,0.63 µM,"O=C(NCC(F)(F)F)Nc1cccc(-c2cnc3cc(-c4ccc(N5CCNCC5)nn4)ccn23)c1 [Example 23, 1-{3-[7-(6-Piperazin-1-ylpyridazin-3-yl)-imidazo[1,2-a]pyridin-3-yl]phenyl}-3-(2,2,2-trifluoroethyl)urea trifluoroacetate]",–,"inhibition at 10 µM [1, 7]: 0%; inhibition at 0.001 µM ([2]; 3 h, read-out: FGFR3 % I): 58%"
39%,29 nM,0.021 µM,"CC(C)N1CCC(n2cc(-c3ccn4c(-c5cccc(NC(=O)NCC(F)(F)F)c5)cnc4c3)cn2)CC1 [Example 50, 1-(3-{7-[1-(1-Isopropylpiperidin-4-yl)-1H-pyrazol-4-yl]imidazo[1,2-a]pyridin-3-yl}-phenyl)-3-(2,2,2-trifluoroethyl)urea hydrochloride]",710 nM,–
